Experimental findings from US20230391781A1, “MALT1 MODULATORS AND USES THEREOF” (Rheos Medicines, Inc., priority 2020, published 2023) are described below.

SMILES strings stand for the structures. pIC50: −log10 of the molar value.

In assay [1] the target is full length MALT1 (Homo sapiens (Human), UniProt Q9UDY8). Briefly: MALT1 Biochemical Assay. The conditions noted are these: 15 nM enzyme, 30 μM peptide substrate Ac-Leu-Arg-Ser-Arg-Rh110-dPro, 30 min pre-incubation, 60 min reaction; mean value if tested more than once. As for the experimental part:
Inhibitor potency was evaluated by measuring enzymatic activity of full length MALT1 at varying concentrations of compound. The enzymatic assay consists of a single substrate reaction that monitors the release of a fluorescent dye upon cleavage of the peptide substrate. […] The assay buffer consists of 50 mM Hepes, pH 7.5, 0.8 M sodium citrate, 1 mM DTT, 0.004% tween-20, and 0.005% bovine serum albumin (BSA). […] The reaction was quenched after 60 minutes with the addition of iodoacetate at a final concentration of 10 mM. Total fluorescence was measured using an Envision (PerkinElmer) with fluorescence excitation at 485 nm and emission at […].
For potency determination, 1 μL of serially diluted compound (in 100% DMSO) was pre-incubated with 40 μL of enzyme for 30 minutes. The reaction was initiated with the addition of 10 μL of peptide substrate. The relative fluorescence units were transformed to percent inhibition by using 0% and 100% inhibition controls as reference. […] IC50 values were calculated by fitting the concentration-response curves to a four-parameter logistic equation in GraphPad Prism.

Assay [2] deals with IL-2 in Jurkat (ATCC, clone E6.1) cells stimulated with anti-CD3/28/2. In words: Jurkat IL-2 Assay. Type of assay: cell-based. Particulars: Homo sapiens; IL-2 inhibition, Jurkat cells, 30 min compound then anti-CD3/28/2 stimulation for 24 hours; mean value if tested more than once; read-out: IC50. As for the experimental part: Inhibition was determined in a cell-based assay using Jurkat (ATCC, clone E6.1), an immortalized T-cell line, exposed to a dose response of compound and assessed for viability, and Il-2 inhibition by ELISA. Cells were cultured in RPMI/10% FBS (Invitrogen 11875093, Atlanta Biologicals S12450H), maintained below 3E6/mL and only used in assays while below passage 25. Compounds were stamped by ECHO onto 384w plates (PerkinElmer Culturplate, 6007680). The cells were plated in fresh media on top of compound and incubated for 30 minutes before stimulation with soluble anti-CD3/28/2 (Stemcell, 10970) for 24 hours. Supernatant was collected and assessed for Il-2 (MSD, 384w, L21SA-1). To assess viability of cells treated with compound, cells were lysed with CTG reagent (Promega, G7570), and measured by luminometer. […] IC50s calculated using 4-parameter fit in GraphPad Prism.
In this table, “A” indicates IC50 of less than 0.1 μM; “B” indicates IC50 from 0.1 μM up to 1 μM; and “C” indicates IC50 of greater than 1 μM. “N/A” indicates not tested. For a compound that was tested in more than one experiment, the result shown represents the mean value.

Sequence of full length MALT1 (Q9UDY8 whole entry): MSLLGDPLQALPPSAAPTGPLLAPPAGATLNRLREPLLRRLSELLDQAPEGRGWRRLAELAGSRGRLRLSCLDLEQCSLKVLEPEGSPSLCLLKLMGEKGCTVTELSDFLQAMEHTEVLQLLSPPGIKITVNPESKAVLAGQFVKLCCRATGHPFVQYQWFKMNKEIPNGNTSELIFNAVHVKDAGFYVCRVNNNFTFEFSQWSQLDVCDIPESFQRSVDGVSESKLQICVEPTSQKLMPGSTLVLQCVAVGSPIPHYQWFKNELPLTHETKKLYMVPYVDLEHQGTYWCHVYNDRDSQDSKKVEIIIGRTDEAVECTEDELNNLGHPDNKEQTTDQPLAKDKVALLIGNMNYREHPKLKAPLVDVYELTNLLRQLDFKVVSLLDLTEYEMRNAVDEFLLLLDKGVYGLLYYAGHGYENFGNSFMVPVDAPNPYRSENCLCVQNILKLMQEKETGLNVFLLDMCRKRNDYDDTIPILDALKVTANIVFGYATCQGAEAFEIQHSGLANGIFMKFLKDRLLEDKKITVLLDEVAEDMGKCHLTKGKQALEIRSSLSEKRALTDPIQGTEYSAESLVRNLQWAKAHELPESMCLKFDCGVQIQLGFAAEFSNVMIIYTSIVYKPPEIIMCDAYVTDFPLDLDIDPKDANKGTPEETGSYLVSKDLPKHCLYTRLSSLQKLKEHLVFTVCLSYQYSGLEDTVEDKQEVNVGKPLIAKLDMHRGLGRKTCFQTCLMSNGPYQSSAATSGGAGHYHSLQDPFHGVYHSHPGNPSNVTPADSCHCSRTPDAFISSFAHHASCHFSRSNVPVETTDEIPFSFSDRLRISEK

One may read the pIC50 as −log10 of the IC50, conventionally taken in molar units. With `CO[C@@H](C)c1c(Nc2ccc(C(C)N(C)C(=O)C3CCCC3)cc2)cnc2nc(Cl)nn12` (stereo partly drawn) [Compound 1.22, N-{1-[4-({2-chloro-7-[(1S)-1-methoxyethyl]-[1,2,4]triazolo[1,5-a]pyrimidin-6-yl}amino)phenyl]ethyl}-N-methylcyclopentanecarboxamide], the pIC50 in assay [1] and in assay [2] was under 6.00 in each case.

On to `CO[C@@H](C)c1c(Nc2ccc(C(C)N(C)C(=O)C3CC3)cc2)cnc2nc(Cl)nn12` (stereo partly drawn) [Compound 1.23, N-{1-[4-({2-chloro-7-[(1S)-1-methoxyethyl]-[1,2,4]triazolo[1,5-a]pyrimidin-6-yl}amino)phenyl]ethyl}-N-methylcyclopropanecarboxamide], for which the pIC50 in assay [1] and in assay [2] was under 6.00 throughout.

As for `CO[C@@H](C)c1c(Nc2ccc(C(C)N(C)C(C)=O)cc2)cnc2nc(Cl)nn12` (stereo partly drawn) [Compound 1.24, N-{1-[4-({2-chloro-7-[(1S)-1-methoxyethyl]-[1,2,4]triazolo[1,5-a]pyrimidin-6-yl}amino)phenyl]ethyl}-N-methylacetamide], the pIC50 in assay [1] and in assay [2] was under 6.00 in each case.

In the case of `CO[C@@H](C)c1c(Nc2ccc(C(N(C)C(C)=O)C(F)(F)F)cc2)cnc2nc(Cl)nn12` (stereo partly drawn) [Compound 1.25, N-{1-[4-({2-chloro-7-[(1S)-1-methoxyethyl]-[1,2,4]triazolo[1,5-a]pyrimidin-6-yl}amino)phenyl]-2,2,2-trifluoroethyl}-N-methylacetamide], the values for the pIC50 in assay [1] and in assay [2] were 6.00 to 7.00 and under 6.00, respectively.

With `CO[C@@H](C)c1c(Nc2ccc([C@@H](N(C)C(=O)C3CCS(=O)(=O)CC3)C(F)(F)F)cc2)cnc2nc(Cl)nn12` [Compound 1.26, N-[(1R)-1-[4-({2-chloro-7-[(1S)-1-methoxyethyl]-[1,2,4]triazolo[1,5-a]pyrimidin-6-yl}amino)phenyl]-2,2,2-trifluoroethyl]-N-methyl-1,1-dioxo-1λ^6-thiane-4-carboxamide], the pIC50 in assay [1] and in assay [2] was under 6.00 in each case.

Turning to `CO[C@H](C)c1c(Nc2ccc([C@@H](N(C)C(=O)C3CCS(=O)(=O)CC3)C(F)(F)F)cc2)cnc2nc(Cl)nn12` [Compound 1.27, N-[(1R)-1-[4-({2-chloro-7-[(1R)-1-methoxyethyl]-[1,2,4]triazolo[1,5-a]pyrimidin-6-yl}amino)phenyl]-2,2,2-trifluoroethyl]-N-methyl-1,1-dioxo-1λ^6-thiane-4-carboxamide], the pIC50 in assay [1] and in assay [2] was under 6.00 throughout.

For `CO[C@@H](C)c1c(Nc2ccc([C@H](N(C)C(=O)C3CCC3)C(F)(F)F)c(C)c2)cnc2nc(Cl)nn12` [Compound 1.28, N-[(1S)-1-[4-({2-chloro-7-[(1S)-1-methoxyethyl]-[1,2,4]triazolo[1,5-a]pyrimidin-6-yl}amino)-2-methylphenyl]-2,2,2-trifluoroethyl]-N-methylcyclobutanecarboxamide], the negative logarithm of the IC50 (pIC50) in assay [1] and in assay [2] was under 6.00 each time.

For the molecule `CO[C@@H](C)c1c(Nc2ccc([C@H](N(C)C(=O)C3CC3)C(F)(F)F)c(C)c2)cnc2nc(Cl)nn12` [Compound 1.29, N-[(1S)-1-[4-({2-chloro-7-[(1S)-1-methoxyethyl]-[1,2,4]triazolo[1,5-a]pyrimidin-6-yl}amino)-2-methylphenyl]-2,2,2-trifluoroethyl]-N-methylcyclopropanecarboxamide], the pIC50 in assay [1] and in assay [2] was under 6.00 throughout.

As for `CO[C@@H](C)c1c(Nc2ccc([C@H](N(C)C(=O)C3CCS(=O)(=O)CC3)C(F)(F)F)c(C)c2)cnc2nc(Cl)nn12` [Compound 1.30, N-[(1S)-1-[4-({2-chloro-7-[(1S)-1-methoxyethyl]-[1,2,4]triazolo[1,5-a]pyrimidin-6-yl}amino)-2-methylphenyl]-2,2,2-trifluoroethyl]-N-methyl-1,1-dioxo-1λ^6-thiane-4-carboxamide], the pIC50 was 6.00 to 7.00 in assay [1] and under 6.00 in assay [2].
